Columns and labels:
[1] = tested on: carrageenan edema in the rat's paw; test: carrageenan edema in the rat's paw, physical forms of PGA and Curcumin; format: in vivo; conditions: for edema as a percentage of the edema produced only by carrageenan (value of 100) / pharmacological effect on carrageenan edema (in words): rat; for edema as a percentage of the edema produced only by carrageenan (value of 100): PGA 30, PGA-m 20, CUR-m 10, PGACUR-m 30, PGA-sm 20 mg/kg; for pharmacological effect on carrageenan edema (in words): PGA 30, PGA-m 20, PGA-sm 20, CUR 10, PGACUR-m 30 mg/kg
Procedure: The experimental model of carrageenan edema was used in the rat's paw, which determines epithelial dysfunction at the paw level.
The experimental model of carrageenan edema in the paw was induced by sub-plantar injection of a carrageenan solution (containing 50 μl of sterile saline containing 1% carrageenan) into the right paw of the animal (rat).
At specific time intervals the plantar volume was measured by a plethysmometer (Ugo Basile, Milan, Italy). The increase in plantar volume was evaluated as the difference between the value obtained in the specific time intervals and the volume at baseline (time 0) measured immediately before the administration of carrageenan.
The following physical forms of N-palmitoyl-D-glucosamine were tested: • Non-micronized N-palmitoyl-D-glucosamine (PGA); • Micronized N-palmitoyl-D-glucosamine (PGA-m); • N-palmitoyl-D-glucosamine co-micronized with Curcumin (PGACUR-m); • N-palmitoyl-D-glucosamine in a sub-micron form (PGA-sm).
The following physical form of Curcumin was also tested: • Micronized Curcumin (CUR-m)
In all cases PGA was tested as a PGA/fatty acid mixture.
The thus obtained results, expressed as a percentage of the edema produced only by carrageenan (indicated with a value of 100), are as follows: […]

[2] = tested on: carrageenan edema in the rat's paw; test: carrageenan edema in the rat's paw, PGA with or without Polydatin; format: in vivo; conditions: Wistar rat, doses per group b126-b129, unit assumed
Procedure: Also in this case, the experimental model of carrageenan edema in the rat's paw was used, which determines epithelial dysfunction at the paw level.
The edema was induced by the sub-plantar injection of 50 μl of an aqueous 1% carrageenan solution. At time intervals (30 min, 1 h, 2 h, 3 h, 4 h, 5 h, 6 h) the volume of the injected paw was evaluated by means of a plethysmometer (Ugo Basile, Milan—Italy). The following physical forms of N-palmitoyl-D-glucosamine with or without Polydatin were tested in groups of 10 animals (Wistar strain weighing between 130 and 160 g) for each group, in the dosages indicated in brackets:
Group B) Carrageenan+micronized Palmitoylglucosamine (10 mg/kg)
Group C) Carrageenan+micronized Polydatin (1 mg/kg)
Group D) Carrageenan+Palmitoylglucosamine (10 mg/kg)+Polydatin (1 mg/kg) [mixed]
Group E) Carrageenan+Palmitoylglucosamine and co-micronized Polydatin [10:1] (11 mg/kg)

SMILES	edema as a percentage of the edema produced only by carrageenan (value of 100) ([1]; 30 min)	edema as a percentage of the edema produced only by carrageenan (value of 100) ([1]; 1 hr)	edema as a percentage of the edema produced only by carrageenan (value of 100) ([1]; 2 hr)	edema as a percentage of the edema produced only by carrageenan (value of 100) ([1]; 3 hr)	edema as a percentage of the edema produced only by carrageenan (value of 100) ([1]; 4 hr)	edema as a percentage of the edema produced only by carrageenan (value of 100) ([1]; 5 hr)	Paw volume ([2]; 30 min from treatment)	Paw volume ([2]; 1 h from treatment)	Paw volume ([2]; 2 h from treatment)	Paw volume ([2]; 3 h from treatment)	Paw volume ([2]; 4 h from treatment)	Paw volume ([2]; 5 h from treatment)	Paw volume ([2]; 6 h from treatment)	pharmacological effect on carrageenan edema (in words) [1]	other results
COc1cc(/C=C/C(=O)CC(=O)/C=C/c2ccc(O)c(OC)c2)ccc1O [CUR-m, Curcumin, reference compound]	100.3%	95.4%	95.1%	94.8%	96.2%	97.4%									pharmacological effect on carrageenan edema (in words) ([1]; listed as micronized CUR): no significant pharmacological effect; pharmacological effect on carrageenan edema (in words) ([1]; listed as micronized Curcumin): almost total inactivity
OC[C@H]1O[C@@H](Oc2cc(O)cc(/C=C/c3ccc(O)cc3)c2)[C@H](O)[C@@H](O)[C@@H]1O [Group C), Polydatin, reference compound]							0.21 mL	0.32 mL	0.69 mL	1.03 mL	1.19 mL	1.28 mL	0.95 mL		
CCCCCCCCCCCCCCCC(=O)N[C@H]1C(O)O[C@H](CO)[C@@H](O)[C@@H]1O (stereo partly drawn) [PGA, N-palmitoyl-D-glucosamine]	100.0%	100.0%	100.0%	100.0%	100.0%	100.0%									pharmacological effect on carrageenan edema (in words) ([1]; listed as PGA (non-micronized)): no pharmacological effect; pharmacological effect on carrageenan edema (in words) ([1]; listed as non-micronized PGA): total inactivity; melting point: 202 °C (dec.)
CCCCCCCCCCCCCCCC(=O)N[C@H]1C(O)O[C@H](CO)[C@@H](O)[C@@H]1O (stereo partly drawn) [PGA-m, N-palmitoyl-D-glucosamine]	100.0%	92.2%	80.1%	71.5%	70.4%	75.5%	0.23 mL	0.33 mL	0.81 mL	1 mL	1.21 mL	1.33 mL	1.05 mL	apparent pharmacological effect	reduction of the Carrageenan edema ([1]; PGA-m 20 mg/Kg, co-micronized PGA-m 20 mg/Kg + CUR 10 mg/kg, corresponds to the 5 hr values of Table 1): 24.5%
CCCCCCCCCCCCCCCC(=O)N[C@H]1C(O)O[C@H](CO)[C@@H](O)[C@@H]1O (stereo partly drawn) [PGA-sm, N-palmitoyl-D-glucosamine]	100.0%	100.0%	98.0%	97.0%	98.0%	98.0%								no significant pharmacological effect	pharmacological effect on carrageenan edema (in words) ([1]; listed as sub-micron PGA): markedly pejorative activity compared to the micronized PGA; pharmacological effect on carrageenan edema (in words) ([1]; listed as sub-micronized PGA): almost total inactivity
